According to patent publication US7132258B1, “Nucleic acid encoding vitamin D receptor related polypeptide” (University of Massachusetts, priority 1998, dated 2006):
Entries after “also recorded” stand apart in the source; their conditions may differ.

Test system: RAC3 message
Experiment: Northern blot analysis of RAC3 expression in HL-60 cells
Format: cell-based, human
Description: The expression of RAC3 was examined with Northern blot analysis using standard methods. A single message of about 7.5 kb was detected in human HL60 cells as well as in mouse embryonic tissues. […] Thus, a positive feedback regulatory network may operate in which RAC3 binding to RA-RAR complex activates transcription which, in turn, increases transcription of RAC3.
Cells were treated with different concentration of RA (0, 10, 100, 1000 nM) for a period of 12 hours. In the control group, cells were treated with equal volume of solvent (80% EtOH plus 20% DMSO). Total RNAs were isolated using an RNA isolation kit (RNAzol) and separated on a 1% agarose gel with 2.2 M formaldehyde and blotted onto nylon filters. Filters were hybridized with random-primed ^32P-labeled DNA probes specific for RAC3, Tw2, and SRC1 in hybridization buffer (50% formamide, SX SSPE [1×SSPE is 0.18 M NaCl, 10 mM NaPO4, and 1 mM EDTA at pH 7.7], 2× Denhardt solution, 0.1% SDS, 0.1 mg of sheared herring sperm DNA per ml) at 42° C. overnight. […]
The expression patterns of RAC3 in different human tissues and cancer cells were examined and compared with that of SRC-1 and TIF2. […] Total RNA (20 μg) of HL-60 cells treated with indicated concentrations of atRA for 12 hours or with 1 μM tRA plus 10 μM cycloheximide (CHX) were analyzed for RAC3 message by Northem blot analysis. […]

Structure (SMILES) | expression of RAC3 (HL60 cells treated with atRA) | effect on stimulation of RAC3 expression by atRA (HL60 cells, addition of cycloheximide)
CC1=C(/C=C/C(C)=C/C=C/C(C)=C/C(=O)O)C(C)(C)CCC1 [atRA, all-trans retinoic acid] | up-regulated; also recorded: significantly enhances | –
C[C@@H]1C[C@@H]([C@H](O)CC2CC(=O)NC(=O)C2)C(=O)[C@@H](C)C1 [cycloheximide] | – | does not have an effect
